target: recombinant human baculovirus-expressed cMET (Homo sapiens (Human), UniProt P08581); test: C-MET Kinase Assay (HTRF KinEASE); type: biochemical; conditions: average of two or more determinations; read-out: c-MET IC50
Protocol: The cMET kinase assay was performed in 384-well Fluotrac™ 200 HiBase microplates using the HTRF KinEASE™ assay described above for AXL except that the assay volume was reduced to half. Enzyme concentration was 8 ng/mL of recombinant human baculovirus-expressed cMET while the substrate concentrations were 0.1 μM and 0.02 μM for the biotinylated peptide and ATP, respectively. Instead of the Multidrop Combi, the BioRAPTR® FRD microfluidic workstation (Beckman Coulter, Brea, Calif.) was utilized for reagent additions.
Inhibition curves for compounds were generated by plotting percent control activity versus log 10 of the concentration of compound. IC50 values were calculated by nonlinear regression using the sigmoidal dose-response (variable slope) equation in GraphPad Prism as follows: y=bottom+(top−bottom)/(1+10(log IC50−x)*Hill Slope) where y is the % kinase activity at a given concentration of compound, x is the logarithm of the concentration of compound, bottom is the % of control kinase activity at the highest compound concentration tested, and top is the % of control kinase activity at the lowest compound concentration examined. The values for bottom and top were fixed at 0 and 100, respectively.

Compared with COc1cc2c(Oc3ccc(NC(=O)c4cn(C(C)C)c(=O)n(-c5ccc(F)cc5)c4=O)cc3F)ccnc2cc1OCc1ccccc1 [Example 41, 3-(4-Fluorophenyl)-1-isopropyl-2,4-dioxo-1,2,3,4-tetrahydropyrimidine-5-carboxylic acid [4-(7-benzyloxy-6-methoxyquinolin-4-yloxy)-3-fluorophenyl]-amide], COc1cc2nccc(Oc3ccc(NC(=O)c4cn(CCCc5ccccc5)c(=O)n(-c5ccc(F)cc5)c4=O)cc3F)c2cc1OC [Example 81, 3-(4-Fluoro-phenyl)-2,4-dioxo-1-(3-phenyl-propyl)-1,2,3,4-tetrahydro-pyrimidine-5-carboxylic acid [4-(6,7-dimethoxy-quinolin-4-yloxy)-3-fluoro-phenyl]-amide] is lower in IC50: 101 to 1000 nM for the first, 10 to 100 nM for the second.

Compared with CCn1cc(C(=O)Nc2ccc(Oc3ccnc4cc(O)c(OC)cc34)c(F)c2)c(=O)n(-c2ccc(F)cc2)c1=O [Example 42, 1-Ethyl-3-(4-fluorophenyl)-2,4-dioxo-1,2,3,4-tetrahydropyrimidine-5-carboxylic acid [3-fluoro-4-(7-hydroxy-6-methoxyquinolin-4-yloxy)phenyl]-amide], COc1cc2c(Oc3ccc(NC(=O)c4cn(C(C)C)c(=O)n(-c5ccc(F)cc5)c4=O)cc3F)ccnc2cc1O [Example 46, 3-(4-Fluorophenyl)-1-isopropyl-2,4-dioxo-1,2,3,4-tetrahydropyrimidine-5-carboxylic acid [3-fluoro-4-(7-hydroxy-6-methoxyquinolin-4-yloxy)-phenyl]-amide] is lower in IC50: 10 to 100 nM for the first, under 10 nM for the second. The second is the more potent here.

CCn1cc(C(=O)Nc2ccc(Oc3ccnc4cc(OCCCN5CCOCC5)c(OC)cc34)c(F)c2)c(=O)n(-c2ccc(F)cc2)c1=O [Example 43, 1-Ethyl-3-(4-fluorophenyl)-2,4-dioxo-1,2,3,4-tetrahydropyrimidine-5-carboxylic acid {3-fluoro-4-[6-methoxy-7-(3-morpholin-4-yl-propoxy)quinolin-4-yloxy]phenyl}-amide] and CCn1cc(C(=O)Nc2ccc(Oc3ccnc4cc(OCCN5CCOCC5)c(OC)cc34)c(F)c2)c(=O)n(-c2ccc(F)cc2)c1=O [Example 45, 1-Ethyl-3-(4-fluorophenyl)-2,4-dioxo-1,2,3,4-tetrahydropyrimidine-5-carboxylic acid {3-fluoro-4-[6-methoxy-7-(2-morpholin-4-yl-ethoxy)-quinolin-4-yloxy]phenyl}-amide] fall in the same range of IC50: 10 to 100 nM for the first, 10 to 100 nM for the second.

CCn1cc(C(=O)Nc2ccc(Oc3ccnc4cc(OCCOC)c(OC)cc34)c(F)c2)c(=O)n(-c2ccc(F)cc2)c1=O [Example 44, 1-Ethyl-3-(4-fluorophenyl)-2,4-dioxo-1,2,3,4-tetrahydropyrimidine-5-carboxylic acid {3-fluoro-4-[6-methoxy-7-(2-methoxyethoxy)quinolin-4-yloxy]-phenyl}-amide] and COc1cc2nccc(Oc3ccc(NC(=O)c4cn(CCCCO)c(=O)n(-c5ccc(F)cc5)c4=O)cc3F)c2cc1OC [Example 55, 3-(4-Fluorophenyl)-1-(4-hydroxybutyl)-2,4-dioxo-1,2,3,4-tetrahydropyrimidine-5-carboxylic acid [4-(6,7-dimethoxyquinolin-4-yloxy)-3-fluorophenyl]-amide] fall in the same range of IC50: 10 to 100 nM for the first, 10 to 100 nM for the second.

First: COc1cc2c(Oc3ccc(NC(=O)c4cn(C(C)C)c(=O)n(-c5ccc(F)cc5)c4=O)cc3F)ccnc2cc1OCCCN1CCOCC1 [Example 47, 3-(4-Fluorophenyl)-1-isopropyl-2,4-dioxo-1,2,3,4-tetrahydropyrimidine-5-carboxylic acid {3-fluoro-4-[6-methoxy-7-(3-morpholin-4-yl-propoxy)-quinolin-4-yloxy]phenyl}-amide]
Second: COc1cc2nccc(Oc3ccc(NC(=O)c4cn(C(C)C)c(=O)n(-c5ccc(F)cc5)c4=O)cc3C3CC3)c2cc1OC [Example 60, 3-(4-Fluoro-phenyl)-1-isopropyl-2,4-dioxo-1,2,3,4-tetrahydro-pyrimidine-5-carboxylic acid [3-cyclopropyl-4-(6,7-dimethoxy-quinolin-4-yloxy)-phenyl]-amide]
The IC50 of the first is lower: 10 to 100 nM for the first, 101 to 1000 nM for the second. The first is the more potent here.

First: CCn1cc(C(=O)N(C)c2ccc(Oc3ccnc4cc(OC)c(OC)cc34)c(F)c2)c(=O)n(-c2ccc(F)cc2)c1=O [Example 48, 1-Ethyl-3-(4-fluorophenyl)-2,4-dioxo-1,2,3,4-tetrahydropyrimidine-5-carboxylic acid [4-(6,7-dimethoxyquinolin-4-yloxy)-3-fluoro-phenyl]-methyl-amide]
Second: CCn1cc(C(=O)Nc2ccc(Oc3ccnc4cc(OC)c(OC)cc34)c(C3CC3)c2)c(=O)n(-c2ccc(F)cc2)c1=O [Example 59, 1-Ethyl-3-(4-fluoro-phenyl)-2,4-dioxo-1,2,3,4-tetrahydropyrimidine-5-carboxylic acid [3-cyclopropyl-4-(6,7-dimethoxy-quinolin-4-yloxy)-phenyl]-amide]
The IC50 of the first is higher: 101 to 1000 nM for the first, 10 to 100 nM for the second. The second is the more potent here.

COc1cc2nccc(Oc3ccc(NC(=O)c4cn(C(C)C)c(=O)n(-c5ccc(F)cc5)c4=O)cc3)c2cc1C#N [Example 56, 3-(4-Fluorophenyl)-1-isopropyl-2,4-dioxo-1,2,3,4-tetrahydropyrimidine-5-carboxylic acid [4-(6-cyano-7-methoxy-quinolin-4-yloxy)-phenyl]-amide] and COc1cc2nccc(Oc3ccc(NC(=O)c4cn(C(C(C)=O)C(=O)N(C)C)c(=O)n(-c5ccc(F)cc5)c4=O)cc3F)c2cc1OC (stereo not drawn) [Example 84, 1-(1-Dimethylcarbamoyl-2-oxo-propyl)-3-(4-fluoro-phenyl)-2,4-dioxo-1,2,3,4-tetrahydro-pyrimidine-5-carboxylic acid [4-(6,7-dimethoxy-quinolin-4-yloxy)-3-fluoro-phenyl]-amide] fall in the same range of IC50: 10 to 100 nM for the first, 10 to 100 nM for the second.

Compared with COc1cc2nccc(Oc3ccc(NC(=O)c4cn(CC(=O)OC(C)(C)C)c(=O)n(-c5ccc(F)cc5)c4=O)cc3F)c2cc1OC [Example 70, [5-[4-(6,7-Dimethoxy-quinolin-4-yloxy)-3-fluoro-phenylcarbamoyl]-3-(4-fluoro-phenyl)-2,4-dioxo-3,4-dihydro-2H-pyrimidin-1-yl]-acetic acid tert-butyl ester], COc1cc2nccc(Oc3ccc(NC(=O)c4cn(CCC5CCCCC5)c(=O)n(-c5ccc(F)cc5)c4=O)cc3F)c2cc1OC [Example 80, 1-(2-Cyclohexyl-ethyl)-3-(4-fluoro-phenyl)-2,4-dioxo-1,2,3,4-tetrahydro-pyrimidine-5-carboxylic acid [4-(6,7-dimethoxy-quinolin-4-yloxy)-3-fluoro-phenyl]-amide] is higher in IC50: 10 to 100 nM for the first, 101 to 1000 nM for the second. The first is the more potent here.

First: COc1cc2nccc(Oc3c(F)cc(NC(=O)c4c[nH]c(=O)n(-c5ccc(F)cc5)c4=O)cc3F)c2cc1OC [Example 89, 3-(4-Fluoro-phenyl)-2,4-dioxo-1,2,3,4-tetrahydropyrimidine-5-carboxylic acid [4-(6,7-dimethoxy-quinolin-4-yloxy)-3,5-difluoro-phenyl]-amide]
Second: CCOc1cc2nccc(Oc3ccc(NC(=O)c4nn(CC)c(=O)n(-c5ccc(F)cc5)c4=O)cc3F)c2cc1OCC [Example 109, 2-Ethyl-4-(4-fluorophenyl)-3,5-dioxo-2,3,4,5-tetrahydro[1,2,4]triazine-6-carboxylic acid [4-(6,7-diethoxy-quinolin-4-yloxy)-3-fluoro-phenyl]-amide]
The IC50 of the first is higher: 101 to 1000 nM for the first, 10 to 100 nM for the second. The second is the more potent here.

CCn1cc(C(=O)Nc2ccc(Oc3ccnc4cc(OC)c(OC)cc34)c(F)c2)c(=O)n(CC)c1=O [Example 93, 1,3-Diethyl-2,4-dioxo-1,2,3,4-tetrahydro-pyrimidine-5-carboxylic acid [4-(6,7-dimethoxy-quinolin-4-yloxy)-3-fluoro-phenyl]-amide] and C=CCn1cc(C(=O)Nc2ccc(Oc3ccnc4cc(OC)c(OC)cc34)c(F)c2)c(=O)n(CC=C)c1=O [Example 96, 1,3-Diallyl-2,4-dioxo-1,2,3,4-tetrahydro-pyrimidine-5-carboxylic acid [4-(6,7-dimethoxy-quinolin-4-yloxy)-3-fluoro-phenyl]-amide] fall in the same range of IC50: 10 to 100 nM for the first, 10 to 100 nM for the second.

First: COc1cc2nccc(Oc3ccc(NC(=O)c4cn(C(C)C)c(=O)n(C(C)C)c4=O)cc3F)c2cc1OC [Example 94, 1,3-Diisopropyl-2,4-dioxo-1,2,3,4-tetrahydro-pyrimidine-5-carboxylic acid [4-(6,7-dimethoxy-quinolin-4-yloxy)-3-fluoro-phenyl]-amide]
Second: COc1cc2nccc(Oc3ccc(NC(=O)c4cn(CC=C(C)C)c(=O)n(CC=C(C)C)c4=O)cc3F)c2cc1OC [Example 97, 1,3-Bis-(3-methyl-but-2-enyl)-2,4-dioxo-1,2,3,4-tetrahydro-pyrimidine-5-carboxylic acid [4-(6,7-dimethoxy-quinolin-4-yloxy)-3-fluoro-phenyl]-amide]
The IC50 of the first is lower: 10 to 100 nM for the first, 101 to 1000 nM for the second.

COc1cc2nccc(Oc3ccc(NC(=O)c4cn(CC5CC5)c(=O)n(CC5CC5)c4=O)cc3F)c2cc1OC [Example 95, 1,3-Bis-cyclopropylmethyl-2,4-dioxo-1,2,3,4-tetrahydro-pyrimidine-5-carboxylic acid [4-(6,7-dimethoxy-quinolin-4-yloxy)-3-fluoro-phenyl]-amide] and C#CCn1cc(C(=O)Nc2ccc(Oc3ccnc4cc(OC)c(OC)cc34)c(F)c2)c(=O)n(CC#C)c1=O [Example 98, 2,4-Dioxo-1,3-di-prop-2-ynyl-1,2,3,4-tetrahydro-pyrimidine-5-carboxylic acid [4-(6,7-dimethoxy-quinolin-4-yloxy)-3-fluoro-phenyl]-amide] fall in the same range of IC50: 10 to 100 nM for the first, 10 to 100 nM for the second.
